Reference: patent publication US10899628B2, “Cerium sulfate chelated sulfur dioxide, a preparation method and a use thereof” (South China Normal University, priority 2017, dated 2021)
Where two headings read alike, the source gives them in different places.

Tests used:
[1] = background statement, cited from earlier work
[2] = solubility in water, aqueous DMSO and DMSO; type: physicochemical
[3] = thermogravimetric analysis (TGA); type: physicochemical
Experimental: It is known from the TGA curve that the weight loss between 30.5° C. and 150° C. corresponds to the content of crystal water in the chelated molecules.

Row | Molecule | solubility in a solution of a certain acidity ([1]; acidic solution) | solubility in water ([1]; water) | solubility in DMSO ([2]; DMSO) | solubility in about 4% aqueous solution of DMSO ([2]; about 4% aqueous solution of dimethyl sulfoxide) | solubility in water ([2]; water, standing for a period of time or heating under water bath of about 45 to 50° C.) | weight loss (crystal water) ([3]; between 30.5° C. and 150° C.) [%] | product remained in the final residue (thermal stability) ([3]; final residue) [%]
1 | O=S(=O)([O-])[O-].O=S(=O)([O-])[O-].[Ce+4] [Anhydrous cerium sulfate, anhydrous cerium sulfate] | highly soluble | not highly soluble | – | – | – | – | –
2 | cerium sulfate chelated sulfur dioxide | – | – | insoluble | soluble | forms an emulsion with water, and can dissolve after standing for a period of time or heating | 11 | 72.51
